Assay results: ChEMBL document CHEMBL3861941, “Discovery of 4,6-disubstituted pyrimidines as potent inhibitors of the heat shock factor 1 (HSF1) stress pathway and CDK9” (Medchemcomm, 2016)

Tests used:
[1] = molecular target: CDK9/cyclin T1 (Homo sapiens, UniProt P50750)
[2] = Cytotoxicity against human U2OS cells assessed as growth inhibition after 96 hrs by SRB assay; assay type: functional, cell-based
[3] = molecular target: Cyclin-dependent kinase 2/cyclin E1 (Homo sapiens, UniProt P24941); assay: Inhibition of recombinant full-length human C-terminal His6-tagged CDK2/recombinant full-length human N-terminal GST-tagged cyclin E using fluorescein-QSPKKG-CONH2 as substrate after 60 mins by off-chip mobility shift assay; assay type: protein-complex assay

Sequence of CDK9/cyclin T1 (O60563 whole entry): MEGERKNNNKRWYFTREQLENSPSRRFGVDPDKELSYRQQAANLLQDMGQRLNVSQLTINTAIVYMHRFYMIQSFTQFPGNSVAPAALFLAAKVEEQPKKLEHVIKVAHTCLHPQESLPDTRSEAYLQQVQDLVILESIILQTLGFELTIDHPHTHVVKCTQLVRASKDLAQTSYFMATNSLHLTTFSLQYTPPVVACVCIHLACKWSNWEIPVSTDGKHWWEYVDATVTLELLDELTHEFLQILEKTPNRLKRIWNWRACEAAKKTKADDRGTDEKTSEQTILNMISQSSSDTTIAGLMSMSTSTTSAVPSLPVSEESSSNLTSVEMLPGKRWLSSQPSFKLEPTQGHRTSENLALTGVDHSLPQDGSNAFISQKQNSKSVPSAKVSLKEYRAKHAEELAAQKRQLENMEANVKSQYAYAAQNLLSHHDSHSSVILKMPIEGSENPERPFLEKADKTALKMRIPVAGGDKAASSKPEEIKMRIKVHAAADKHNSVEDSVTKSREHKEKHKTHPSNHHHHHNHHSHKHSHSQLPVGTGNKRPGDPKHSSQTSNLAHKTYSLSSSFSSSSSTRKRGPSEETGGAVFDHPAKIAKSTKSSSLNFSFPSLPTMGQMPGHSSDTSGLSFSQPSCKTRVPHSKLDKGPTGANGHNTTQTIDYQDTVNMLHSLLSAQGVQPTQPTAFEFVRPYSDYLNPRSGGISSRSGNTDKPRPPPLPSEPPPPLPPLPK
Sequence of CDK9/cyclin T1 (P50750 whole entry): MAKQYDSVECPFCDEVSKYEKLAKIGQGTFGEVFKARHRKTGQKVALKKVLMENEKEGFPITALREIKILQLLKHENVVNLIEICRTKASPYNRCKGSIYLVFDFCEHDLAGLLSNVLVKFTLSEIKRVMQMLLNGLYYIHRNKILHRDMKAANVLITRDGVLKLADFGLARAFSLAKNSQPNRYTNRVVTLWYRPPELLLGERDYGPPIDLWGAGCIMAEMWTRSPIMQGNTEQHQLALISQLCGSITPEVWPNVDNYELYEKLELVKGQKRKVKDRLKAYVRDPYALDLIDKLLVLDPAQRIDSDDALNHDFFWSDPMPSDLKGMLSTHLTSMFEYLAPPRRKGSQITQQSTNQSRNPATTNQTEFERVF

IC50 [1] [nM] | IC50 [3] [nM] | SMILES | IC50 [2] [nM]
3 | – | c1cnc2ncn(-c3cc(Nc4ccc(OCCN5CCCCC5)cn4)ncn3)c2c1 | 5
– | 65800 | Cc1c(Nc2ccc(OCCN(C)C)cn2)ncnc1-n1cnc2ccccc21 | –
